Laboratory results as given in ChEMBL document CHEMBL3272025, “Conformation-activity studies of oxytocin. Effects of structural modifications at corner positions of the beta-turns on the uterotonic activity” (J Med Chem, 1977).
Bridge positions count the residues as written; N and C are the ends. Peptide text beside a SMILES is read from it.

Experiments:
[1] = test system: Gallus gallus; test: Inhibition of vasodepressor activity in conscious chicken; format: functional, organism-based; details: read-out: pA2 (converted)
[2] = test system: Rattus norvegicus; test: Antidiuretic activity in anesthetized rat; format: functional, Urine
[3] = Retardation factor of the compound using BuOH-C6H6-HOAc-1.5% aqueous pyridine at ratio of 5:5:4:6 as solvent system by partition chromatography; format: physicochemical; details: buffer
[4] = Retardation factor of the compound using BuOH-C6H6-HOAc-1.5% aqueous pyridine at ratio of 10:15:12:18 as solvent system by partition chromatography; format: physicochemical; details: buffer
[5] = biological target: T1, Oxytocin receptor (Rattus norvegicus) (UniProt P70536); test: Agonist activity at oxytocin receptor in virgin rat uterine horns assessed as uterotonic activity at relative to synthetic oxytocin
T1 sequence (whole entry): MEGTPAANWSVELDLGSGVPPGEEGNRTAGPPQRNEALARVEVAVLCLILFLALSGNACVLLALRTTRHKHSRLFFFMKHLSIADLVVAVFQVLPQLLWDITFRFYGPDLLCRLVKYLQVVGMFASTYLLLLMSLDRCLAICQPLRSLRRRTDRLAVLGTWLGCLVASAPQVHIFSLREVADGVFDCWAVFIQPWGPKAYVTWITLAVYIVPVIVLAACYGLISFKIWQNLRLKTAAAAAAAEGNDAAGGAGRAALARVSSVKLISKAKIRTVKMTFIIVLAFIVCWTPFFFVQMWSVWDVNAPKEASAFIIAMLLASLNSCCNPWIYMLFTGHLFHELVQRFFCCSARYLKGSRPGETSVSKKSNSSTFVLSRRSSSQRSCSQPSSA

[6] = Retardation factor of the compound using BuOH-HOAc-H2O at ratio of 4:1:1 as solvent system by thin layer chromatography; format: physicochemical
[7] = biological target: T1, Oxytocin receptor (Rattus norvegicus); test: Agonist activity at oxytocin receptor in virgin rat uterine horns assessed as uterotonic activity at
[8] = test system: Gallus gallus; test: Vasodepressor activity in conscious chicken; format: functional
[9] = test system: Rattus norvegicus; test: Pressor activity in anesthetized rat; format: functional
[10] = Retardation factor of the compound using BuOH-pyridine-HOAc-H2O at ratio of 15:10:3:6 as solvent system by thin layer chromatography; format: physicochemical
[11] = Retardation factor of the compound using BuOH-pyridine-H2O at ratio of 20:10:11 as solvent system by thin layer chromatography; format: physicochemical

CSCC[C@H](NC(=O)[C@@H]1CCCN1C(=O)[C@@H]1CSSC[C@H](N)C(=O)N[C@@H](Cc2ccc(O)cc2)C(=O)N[C@@H](Cc2ccccc2)C(=O)N[C@@H](Cc2ccccc2)C(=O)N[C@@H](CC(N)=O)C(=O)N1)C(=O)NCC(N)=O (H-CYFFNCPMG-NH2; disulfide 1-6)
Kb [1]: 513 nM
Activity [2]: 0.43 U/mg
Rf [3]: 0.49
Rf [4]: 0.19
Activity [5]: 54%
Rf [6]: 0.38

CSCC[C@H](NC(=O)[C@@H]1CCCN1C(=O)[C@@H]1CSSC[C@H](N)C(=O)N[C@@H](Cc2ccc(O)cc2)C(=O)N[C@@H](Cc2ccccc2)C(=O)N[C@@H](CC(C)C)C(=O)N[C@@H](CC(N)=O)C(=O)N1)C(=O)NCC(N)=O (H-CYFLNCPMG-NH2; disulfide 1-6)
Activity [7]: 0.62 U/mg
Activity [8]: 1.05 U/mg
Activity [2]: 0.33 U/mg
Activity [9]: 0.92 U/mg
Rf [4]: 0.17
Activity [5]: 66%
Rf [6]: 0.38
Rf [10]: 0.64

CC(C)C[C@H](NC(=O)[C@@H]1CCCN1C(=O)[C@@H]1CSSC[C@H](N)C(=O)N[C@@H](Cc2ccc(O)cc2)C(=O)N[C@@H](Cc2ccccc2)C(=O)N[C@@H](CCC(N)=O)C(=O)N[C@@H](CC(N)=O)C(=O)N1)C(=O)NCC(N)=O (H-CYFQNCPLG-NH2; disulfide 1-6)
Activity [7]: 39 U/mg
Activity [5]: 90%

CC[C@H](C)[C@@H]1NC(=O)[C@H](Cc2ccc(O)cc2)NC(=O)[C@@H](N)CSSC[C@@H](C(=O)N2CCC[C@H]2C(=O)N[C@@H](CC(C)C)C(=O)NCC(N)=O)NC(=O)[C@H](CC(N)=O)NC(=O)[C@H](Cc2ccccc2)NC1=O (H-CYIFNCPLG-NH2; disulfide 1-6)
Activity [7]: 0.75 U/mg
Rf [4]: 0.26
Activity [5]: 75%
Rf [6]: 0.38
Rf [11]: 0.61

CC[C@H](C)[C@@H]1NC(=O)[C@H](Cc2ccc(O)cc2)NC(=O)[C@@H](N)CSSC[C@@H](C(=O)N2CCC[C@H]2C(=O)N[C@@H](CC(C)C)C(=O)NCC(N)=O)NC(=O)[C@H](CC(N)=O)NC(=O)[C@H](CC(C)C)NC1=O (H-CYILNCPLG-NH2; disulfide 1-6)
Activity [7]: 13 U/mg
Activity [5]: 81%
